One assay has as its system Septoria tritici. The experiment in a line: In vivo test of activity on Septoria tritici (wheat septoria disease). The conditions noted are these: 500 g/ha, preventive spray 24 h before inoculation. As for the experimental part:
In Vivo Test of Activity on Septoria tritici (Wheat Septoria Disease
(§1) An aqueous solution of the active material to be tested is prepared at a concentration of 2 g/l by grinding in solution 1 or solution 2:
(§2) • Water • Tween 80 diluted to 10% in water: 5 μl/mg of active material • Clay in a sufficient amount for active material+clay to equal 100 mg; Solution 2
(§3) Concentrated solution containing surfactants and adjuvants conventionally used: 200 μl/mg of active material.
(§4) The aqueous solution is diluted with water so as to obtain the desired concentration.
Wheat plants of the Scipion variety are sown in a 50/50 pozzolan/peat substrate and maintained at 12° C. The treatment is carried out at the 1-leaf stage (10 cm) by spraying the aqueous suspension. The untreated control plants are sprayed with water.
24 hours after treatment, the plants are inoculated by spraying a solution of Septoria tritici spores (500 000 spores/ml) from a 7-day culture.
The wheat plantlets are then maintained at 18-20° C. in a humid atmosphere for 72 hours, and then at 90% relative humidity. The effectiveness of the products is evaluated relative to the control plants, 21 to 28 days after the contamination.
(§5) The effectiveness of the molecules is estimated, at 500 g/ha, 250 g/ha or 330 ppm, by the percentage of control relative to untreated plants. Under these conditions, good effectiveness is defined as more than 80% effectiveness. Average effectiveness is defined as an effectiveness between 50 and 80%. Poor effectiveness is defined as an effectiveness between 10 and 50% and zero effectiveness is defined as less than 10% effectiveness.

The test system of another assay is Pyrenophora teres. The experiment in a line: In vivo test of activity on Pyrenophora teres (barley net blotch). To be noted: preventive spray 24 h before inoculation. As for the experimental part:
In Vivo Test of Activity on Pyrenophora teres (Barley Net Blotch)
as §1, §2, §3, §4
Barley plants of the Express variety are sown in a 50/50 pozzolan/peat substrate and maintained at 12° C. The treatment is carried out at the 1-leaf stage (10 cm) by spraying the aqueous suspension. The untreated control plants are sprayed with water.
24 hours after treatment, the plants are inoculated by spraying a solution of Pyrenophora teres spores (10 000 spores/ml) originating from a 10-day culture.
The barley plants are then maintained at 18° C. in a humid atmosphere. The effectiveness of the products is evaluated relative to the control plants after eight to fifteen days of incubation.
as §5

A further assay has as its system Botrytis cinerea. Put plainly: In vivo test of activity on Botrytis cinerea on cucumber. The conditions noted are these: preventive spray 24 h before inoculation. As for the experimental part:
In Vivo Test of Activity on Botrytis cinerea on Cucumber
as §1, §2, §3, §4
Cucumbers of the Marketer variety are sown in a 50/50 pozzolan/peat substrate and maintained at 18-22° C. The treatment is carried out by spraying the aqueous suspension. The untreated control plants are sprayed with water.
24 hours after treatment, the plants are inoculated by spraying a solution of Botrytis cinerea spores (150 000 spores/ml) originating from a 15-day culture.
The cucumber plants are then maintained at 11-15° C. in a humid atmosphere. The effectiveness of the products is evaluated relative to the control plants after seven to eight days of incubation.
as §5

Another assay relates to Alternaria brassicae. Put plainly: In vivo test of activity on Alternaria brassicae (crucifer black spot) on radish. To be noted: preventive spray 24 h before inoculation. The method, then: In Vivo Test of Activity on Alternaria brassicae (Crucifer Black Spot)
as §1, §2, §3, §4
Radishes of the Pernot variety are sown in a 50/50 pozzolan/peat substrate and maintained at 18-22° C. The treatment is carried out by spraying the aqueous suspension. The untreated control plants are sprayed with water. 24 hours after treatment, the plants are inoculated by spraying a solution of Alternaria brassicae spores (40 000 spores/ml) originating from a 12-day culture.
The radish plants are then maintained at 18-20° C. in a humid atmosphere. The effectiveness of the products is evaluated relative to the control plants after seven to eight days of incubation.
as §5

Where [1] appears, read: Botrytis cinerea, topical, 250 g/ha, read-out: effectiveness (percentage of control relative to untreated plants).

As to `O=C(NCCc1ncc(C(F)(F)F)cc1Cl)c1ccccc1Cl` [Compound A-2], the “effectiveness (percentage of control relative to untreated plants)” value in the assay with Septoria tritici, with Pyrenophora teres (500 g/ha), in the assay with Botrytis cinerea (500 g/ha) and with Alternaria brassicae (500 g/ha) was “good to average” throughout.

Consider `O=C(NCCc1ncc(C(F)(F)F)cc1Cl)c1ccccc1F` [Compound A-4], for which the “effectiveness (percentage of control relative to untreated plants)” value in the assay on Septoria tritici, in the assay on Pyrenophora teres (500 g/ha) and in the assay with Alternaria brassicae (500 g/ha) was “good to average” throughout.

For the compound `O=C(NCCc1ncc(C(F)(F)F)cc1Cl)c1ccc(F)cc1F` [Compound A-5], the “effectiveness (percentage of control relative to untreated plants)” value in the assay on Septoria tritici and with Pyrenophora teres (500 g/ha) was “good to average” each time.

Turning to `O=C(NCCc1ncc(C(F)(F)F)cc1Cl)c1ccc(Cl)cc1Cl` [Compound A-6], the “effectiveness (percentage of control relative to untreated plants)” value in the assay with Septoria tritici, in the assay on Pyrenophora teres (500 g/ha) and with Alternaria brassicae (500 g/ha) was “good to average” each time.

Take `Cc1ccccc1C(=O)NCCc1ncc(C(F)(F)F)cc1Cl` [Compound A-9]: the “effectiveness (percentage of control relative to untreated plants)” value with Pyrenophora teres (500 g/ha), in the assay with Botrytis cinerea (500 g/ha) and in the assay on Alternaria brassicae (500 g/ha) was “good to average” in each case.

As for `COc1ccc(C(=O)NCCc2ncc(C(F)(F)F)cc2Cl)cc1` [Compound A-16], the “effectiveness (percentage of control relative to untreated plants)” value in the assay on Septoria tritici is given as “good to average”.

As to `CCc1ccc(C(=O)NCCc2ncc(C(F)(F)F)cc2Cl)cc1` [Compound A-21], in the assay with Septoria tritici, the “effectiveness (percentage of control relative to untreated plants)” value is reported as “good to average”.

Take `CCCc1ccc(C(=O)NCCc2ncc(C(F)(F)F)cc2Cl)cc1` [Compound A-22]: the “effectiveness (percentage of control relative to untreated plants)” value with Septoria tritici is on record as “good to average”.

In the case of `CCCCc1ccc(C(=O)NCCc2ncc(C(F)(F)F)cc2Cl)cc1` [Compound A-23], the “effectiveness (percentage of control relative to untreated plants)” value in the assay on Septoria tritici is “good to average”.

On to `O=C(NCCc1ncc(C(F)(F)F)cc1Cl)c1ccccc1I` [Compound A-45], for which the “effectiveness (percentage of control relative to untreated plants)” value in the assay with Pyrenophora teres (250 g/ha), with Pyrenophora teres (330 ppm), in the assay on Botrytis cinerea (250 g/ha), in the assay with Botrytis cinerea (330 ppm), in the assay with Alternaria brassicae (250 g/ha) and in the assay with Alternaria brassicae (330 ppm) was “good to average” throughout.

`O=C(NCCc1ncc(C(F)(F)F)cc1Cl)c1ccccc1Br` [Compound A-46]: the “effectiveness (percentage of control relative to untreated plants)” value in the assay with Pyrenophora teres (250 g/ha), in the assay on Pyrenophora teres (330 ppm), in the assay with Botrytis cinerea (250 g/ha), in the assay on Botrytis cinerea (330 ppm), in the assay on Alternaria brassicae (250 g/ha) and in the assay with Alternaria brassicae (330 ppm) was “good to average” each time.

As for `O=C(NCCc1ncc(C(F)(F)F)cc1Cl)c1ccc(F)cc1C(F)(F)F` [Compound A-73], the “effectiveness (percentage of control relative to untreated plants)” value in the assay with Pyrenophora teres (250 g/ha), in the assay with Pyrenophora teres (330 ppm), with Botrytis cinerea (250 g/ha), in the assay on Botrytis cinerea (330 ppm), in the assay with Alternaria brassicae (250 g/ha) and in the assay on Alternaria brassicae (330 ppm) was “good to average” in each case.

For the compound `N#Cc1ccccc1C(=O)NCCc1ncc(C(F)(F)F)cc1Cl` [Compound A-170], the “effectiveness (percentage of control relative to untreated plants)” value with Botrytis cinerea (330 ppm) and with Alternaria brassicae (330 ppm) was “good to average” in each case.

Turning to `O=C(NCCc1ncc(C(F)(F)F)cc1Cl)c1c(F)cccc1C(F)(F)F` [Compound A-173], the “effectiveness (percentage of control relative to untreated plants)” value in the assay with Pyrenophora teres (330 ppm), with Botrytis cinerea (330 ppm), with Alternaria brassicae (250 g/ha) and in the assay with Alternaria brassicae (330 ppm) was “good to average” each time.

Consider `O=C(NCCc1ncc(C(F)(F)F)cc1Cl)c1c(F)cccc1I` [Compound A-174], for which the “effectiveness (percentage of control relative to untreated plants)” value with Pyrenophora teres (330 ppm), in the assay on Botrytis cinerea (330 ppm) and in the assay with Alternaria brassicae (330 ppm) was “good to average” each time.

As for `O=C(NCCc1ncc(C(F)(F)F)cc1Cl)c1cc(F)ccc1Br` [Compound A-175], the “effectiveness (percentage of control relative to untreated plants)” value with Botrytis cinerea (330 ppm) and with Alternaria brassicae (330 ppm) was “good to average” each time.

As to `O=C(NCCc1ncc(C(F)(F)F)cc1Cl)c1ccccc1OC(F)F` [Compound A-187], the “effectiveness (percentage of control relative to untreated plants)” value with Pyrenophora teres (330 ppm), with Botrytis cinerea (330 ppm) and with Alternaria brassicae (330 ppm) was “good to average” each time.

For the compound `O=C(NCCc1ncc(C(F)(F)F)cc1Cl)c1c(Cl)cccc1Cl` [N-{2-[3-chloro-5-(trifluoromethyl)-2-pyridinyl]-ethyl}-2,6-dichlorobenzamide, reference compound], the pest or weed control at 250 g/ha with Botrytis cinerea (setting [1]) was less than 10%. Also, the pest or weed control at 330 ppm in the assay on Botrytis cinerea (Botrytis cinerea, topical, 330 ppm, read-out: effectiveness (percentage of control relative to untreated plants)) was less than 10%. The “effectiveness (percentage of control relative to untreated plants)” value in the assay with Alternaria brassicae (250 g/ha) is “zero (zero effectiveness is defined as less than 10% effectiveness)”; in the assay on Alternaria brassicae (330 ppm), “poor (Poor effectiveness is defined as an effectiveness between 10 and 50%)”.

`CCNC(=O)C(Cc1ncc(C(F)(F)F)cc1Cl)NC(=O)c1cccc([N+](=O)[O-])c1` (stereo not drawn) [compound 307, N-{1-ethylcarbamoyl-2-[3-chloro-5-(trifluoromethyl)-2-pyridinyl]ethyl}-3-nitrobenzamide, reference compound]: in the assay with Botrytis cinerea (setting [1]), the pest or weed control at 250 g/ha is less than 10%. For the same compound, the “effectiveness (percentage of control relative to untreated plants)” value in the assay with Alternaria brassicae (250 g/ha) is given as “zero (zero effectiveness is defined as less than 10% effectiveness)”.

With `CNC(=O)C(Cc1ncc(C(F)(F)F)cc1Cl)NC(=O)c1ccc(OC)cc1` (stereo not drawn) [compound 315, N-{1-methylcarbamoyl-2-[3-chloro-5-(trifluoromethyl)-2-pyridinyl]ethyl}-4-methoxybenzamide, reference compound], the pest or weed control at 250 g/ha with Botrytis cinerea (setting [1]) is less than 10%.

As to `CNC(=O)C(Cc1ncc(C(F)(F)F)cc1Cl)NC(=O)c1ccc(-c2ccccc2)cc1` (stereo not drawn) [compound 316, N-{1-methylcarbamoyl-2-[3-chloro-5-(trifluoromethyl)-2-pyridinyl]ethyl}-4-phenylbenzamide, reference compound], the pest or weed control at 250 g/ha in the assay with Botrytis cinerea (setting [1]) was less than 10%. Besides, the “effectiveness (percentage of control relative to untreated plants)” value in the assay with Alternaria brassicae (250 g/ha) is “poor (Poor effectiveness is defined as an effectiveness between 10 and 50%)”.

These data come from patent publication US7572818B2, “2-pyridylethylbenzamide derivative” (Bayer Cropscience S.A., priority 2002, dated 2009).
